Here are results for 18 compounds from US8093279B2, “Compound” (priority 2005, dated 2012).

As a reminder, the IC50 is the concentration that gives 50% inhibition. Broadly, the melting point is the temperature, or range, at which the solid turns liquid.

Where only a bound is given, the exact number is not on record here.

The target in one data set is T1, steroid sulphatase (Homo sapiens, UniProt P08842).
T1 sequence (P08842 22-583): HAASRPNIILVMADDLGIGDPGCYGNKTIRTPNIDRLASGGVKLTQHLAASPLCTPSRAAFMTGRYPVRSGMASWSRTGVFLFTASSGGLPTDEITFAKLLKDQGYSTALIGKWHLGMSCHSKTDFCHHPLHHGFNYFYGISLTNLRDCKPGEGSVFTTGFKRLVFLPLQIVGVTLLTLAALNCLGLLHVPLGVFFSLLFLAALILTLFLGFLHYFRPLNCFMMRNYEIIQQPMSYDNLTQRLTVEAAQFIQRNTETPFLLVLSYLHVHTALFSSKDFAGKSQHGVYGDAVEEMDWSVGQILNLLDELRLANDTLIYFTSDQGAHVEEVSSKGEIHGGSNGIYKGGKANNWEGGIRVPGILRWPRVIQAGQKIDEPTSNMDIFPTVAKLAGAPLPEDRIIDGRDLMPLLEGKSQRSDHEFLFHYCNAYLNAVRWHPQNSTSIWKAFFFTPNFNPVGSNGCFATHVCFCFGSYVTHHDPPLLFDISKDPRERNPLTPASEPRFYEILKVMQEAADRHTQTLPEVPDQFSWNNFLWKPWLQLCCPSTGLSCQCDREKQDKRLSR
As to conditions: cited from earlier work.

In a further data set the test system is rats. Conditions: cited from earlier work.
The target in a further data set is T2, Aromatase (Homo sapiens, UniProt P11511).
T2 construct: host or cells: JEG3 choriocarcinoma cells (intact monolayers)
T2 sequence (P11511 1-503): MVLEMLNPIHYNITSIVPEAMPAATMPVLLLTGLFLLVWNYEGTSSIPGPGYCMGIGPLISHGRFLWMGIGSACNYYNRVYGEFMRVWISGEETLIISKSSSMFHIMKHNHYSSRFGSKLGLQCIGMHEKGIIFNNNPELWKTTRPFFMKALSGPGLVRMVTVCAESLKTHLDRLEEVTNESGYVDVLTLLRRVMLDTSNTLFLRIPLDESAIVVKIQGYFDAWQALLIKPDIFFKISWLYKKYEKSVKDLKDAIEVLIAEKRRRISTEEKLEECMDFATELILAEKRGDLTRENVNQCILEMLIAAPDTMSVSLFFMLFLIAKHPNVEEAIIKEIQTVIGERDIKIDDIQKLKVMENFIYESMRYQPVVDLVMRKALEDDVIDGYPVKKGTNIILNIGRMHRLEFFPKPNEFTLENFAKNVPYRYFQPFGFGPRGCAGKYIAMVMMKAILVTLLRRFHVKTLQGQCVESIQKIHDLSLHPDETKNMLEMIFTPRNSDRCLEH
Kind of data set: Aromatase activity in JEG3 choriocarcinoma cells (Protocol 6). The class given is cell-based. Conditions: JEG3 cells. The method, then: Aromatase activity is measured in JEG3 choriocarcinoma cells, obtained from the ATCC.
During the aromatase reaction, ^3H2O is liberated which can be quantified using a liquid scintillation spectrometer (Beckman-Coulter, High Wycombe, Bucks. UK). […] The number of cell nuclei per flask is determined using a Coulter Counter after treating the cell monolayers with Z aponin.
Unpaired Student's t test was used to test the statistical significance of results.
(§1) A number of compounds were tested for aromatase and steroid sulphatase inhibition in accordance with the above Protocols 1 and 6.

The target in a further data set is T3, steroid sulphatase (STS) (Homo sapiens, UniProt P08842).
T3 construct: host or cells: JEG3 choriocarcinoma cells (intact monolayers)
T3 sequence (P08842 22-583): T1 sequence (P08842 22-583)
Kind of data set: Inhibition of steroid sulphatase activity in intact JEG3 cells (Protocol 1). The class given is cell-based. As to conditions: for IC50: JEG3 cells. The method, then:
Inhibition of Steroid Sulphatase Activity in JEG3 cells
Steroid sulphatase activity is measured in vitro using intact JEG3 choriocarcinoma cells. This cell line may be used to study the control of human breast cancer cell growth.
Cells are maintained in Minimal Essential Medium (MEM) (Flow Laboratories, Irvine, Scotland) containing 20 mM HEPES, 5% foetal bovine serum, 2 mM glutamine, non-essential amino acids and 0.075% sodium bicarbonate. Up to 30 replicate 25 cm^2 tissue culture flasks are seeded with approximately 1×10^5 cells/flask using the above medium. Cells are grown to 80% confluency and the medium is changed every third day.
Intact monolayers of JEG3 cells in triplicate 25 cm^2 tissue culture flasks are washed with Earle's Balanced Salt Solution (EBSS from ICN Flow, High Wycombe, U.K.) and incubated for 3-4 hours at 37° C. with 5 pmol (7×10^5 dpm) [6, 7-3H]oestrone-3-sulphate (specific activity 60 Ci/mmol from New England Nuclear, Boston, Mass., U.S.A.) in serum-free MEM (2.5 ml) together with oestrone-3-sulphamate (11 concentrations: 0; 1fM; 0.01 pM; 0.1 pM; 1 pM; 0.01 nM; 0.1 nM; 1 nM; […]). After incubation each flask is cooled and the medium (1 ml) is pipetted into separate tubes containing [14C]oestrone (7×10^3 dpm) (specific activity 97 Ci/mmol from Amersham International Radiochemical Centre, Amersham, U.K.). The mixture is shaken thoroughly for 30 seconds with toluene (5 ml). Experiments have shown that >90% [14C]oestrone and <0.1% [3H]oestrone-3-sulphate is removed from the aqueous phase by this treatment. A portion (2 ml) of the organic phase is removed, evaporated and the 3H and 14C content of the residue determined by scintillation spectrometry. The mass of oestrone-3-sulphate hydrolysed was calculated from the 3H counts obtained (corrected for the volumes of the medium and organic phase used, and for recovery of [14C]oestrone added) and the specific activity of the substrate. Each batch of experiments includes incubations of microsomes prepared from a sulphatase-positive human placenta (positive control) and flasks without cells (to assess apparent non-enzymatic hydrolysis of the substrate). The number of cell nuclei per flask is determined using a Coulter Counter after treating the cell monolayers with Zaponin. One flask in each batch is used to assess cell membrane status and viability using the Trypan Blue exclusion method (Phillips, H. J. (1973) In: Tissue culture and applications, [eds: Kruse, D. F. & Patterson, M. K.]; pp. 406-408; Academic Press, New York).
Results for steroid sulphatase activity are expressed as the mean±1 S.D. of the total product (oestrone+oestradiol) formed during the incubation period (3-4 hours) calculated for […] and, for values showing statistical significance, as a percentage reduction (inhibition) over incubations containing no oestrone-3-sulphamate. Unpaired Student's t-test was used to test the statistical significance of results.
as §1

The conditions of data set [1]: cited from earlier work.
Another data set concerns the target T4, E1-STS (Homo sapiens, UniProt P08842).
T4 construct: host or cells: intact MCF-7 cells (endogenous enzyme)
T4 sequence (P08842 22-583): T1 sequence (P08842 22-583)
Conditions: at 0.1 nM; cited from earlier work.

As for `COc1cc2c(cc1OS(N)(=O)=O)CC[C@@H]1[C@@H]2CC[C@]2(C)C(=O)CC[C@@H]12` [2-methoxyoestrone-3-O-sulphamate], the “potency as a steroid sulphatase inhibitor compared with EMATE” value on steroid sulphatase is reported as “equipotent with EMATE”. The oestrogenicity result with rats (rat, in vivo) is recorded as “devoid of oestrogenicity”.
For the compound `N#Cc1ccc(Cn2cncn2)cc1-c1ccc(OS(N)(=O)=O)cc1` [Compound 20, 5′-((1H-1,2,4-triazol-1-yl)methyl)-2′-cyanobiphenyl-4-yl sulfamate], the IC50 on Aromatase and against steroid sulphatase (STS) was less than 1000 nM throughout.
For the compound `N#Cc1ccc(Cn2cncn2)cc1-c1ccc(OS(N)(=O)=O)c(Cl)c1` [Compound 23, 5′-((1H-1,2,4-triazol-1-yl)methyl)-3-chloro-2′-cyanobiphenyl-4-yl sulfamate], the IC50 against steroid sulphatase (STS) was less than 1000 nM.
With `N#Cc1ccc(-c2ccc(OS(N)(=O)=O)cc2)cc1Cn1cncn1` [Compound 31, 3′-((1H-1,2,4-triazol-1-yl)methyl)-4′-cyanobiphenyl-4-yl sulfamate], the melting point lay in the range of 179 to 180 °C. Moreover, the IC50 against Aromatase was less than 1000 nM. Further, the IC50 against steroid sulphatase (STS) is less than 1000 nM.
Take `N#Cc1ccc(-c2ccc(OS(N)(=O)=O)c(Cl)c2)cc1Cn1cncn1` [Compound 33, 3′-((1H-1,2,4-triazol-1-yl)methyl)-3-chloro-4′-cyanobiphenyl-4-yl sulfamate]: the melting point was in the range of 155 to 158 °C. In addition, the IC50 on Aromatase is less than 1000 nM. In addition, on steroid sulphatase (STS), the IC50 was less than 1000 nM.
Consider `N#Cc1cc(Cn2cncn2)cc(-c2ccc(OS(N)(=O)=O)c(Cl)c2)c1` [Compound 40, 3′-((1H-1,2,4-triazol-1-yl)methyl)-3-chloro-5′-cyanobiphenyl-4-yl sulfamate], for which the half-maximal inhibitory concentration (IC50) at Aromatase was less than 1000 nM; on steroid sulphatase (STS) it was less than 10000 nM.
`N#Cc1cc(Cn2cncn2)ccc1-c1ccc(OS(N)(=O)=O)cc1` [Compound 48, 4′-((1H-1,2,4-triazol-1-yl)methyl)-2′-cyanobiphenyl-4-yl sulfamate]: the IC50 at Aromatase and against steroid sulphatase (STS) was less than 1000 nM each time.
`N#Cc1cc(Cn2cncn2)ccc1-c1ccc(OS(N)(=O)=O)c(Cl)c1` [Compound 50, 4′-((1H-1,2,4-triazol-1-yl)methyl)-3-chloro-2′-cyanobiphenyl-4-yl sulfamate]: the IC50 on Aromatase and at steroid sulphatase (STS) was less than 1000 nM in each case.
The compound `CC(C)(C#N)c1cc(Cn2cncn2)cc(-c2ccc(OS(N)(=O)=O)c(Cl)c2)c1` [Compound 58, 3′-((1H-1,2,4-triazol-1-yl)methyl)-3-chloro-5′-(2-cyanopropan-2-yl)biphenyl-4-yl sulfamate] yielded a melting point of 71 to 74 °C. This compound had an IC50 against Aromatase of less than 1000 nM. Besides, the “JEG3-cells STS, % at single concentration” value on steroid sulphatase (STS) (@ 10 μM) is given as 68.2 ± 1.6% @ 10 μM.
Consider `C[C@]12CC[C@@H]3c4ccc(OS(=O)(=O)O)cc4CC[C@H]3[C@@H]1CCC2=O` [E1S, oestrone sulphate], for which the half-life in blood in data set [1] is 10 to 12 h.
On to `CC12CCC3c4ccc(OS(N)(=O)=O)cc4CCC3C1CCC2=O` (stereo not drawn) [EMATE, oestrone-3-sulphamate], for which the “inhibition of E1-STS activity in intact MCF-7 cells” value at E1-STS is “more than 99%”. Moreover, the “oral uterotrophic activity in rats relative to estradiol” value in the data set on rats (oral, rats, versus estradiol) is reported as 100 times.
As to `NS(=O)(=O)Oc1ccc(-c2cccc(Cn3cncn3)c2)cc1` [compound 1455], the IC50 against Aromatase is less than 1000 nM; against steroid sulphatase (STS) it was less than 10000 nM.
On to `NS(=O)(=O)Oc1cccc(-c2cccc(Cn3cncn3)c2)c1` [compound 1848], for which the IC50 against Aromatase was less than 1000 nM; against steroid sulphatase (STS), less than 10000 nM.
For `NS(=O)(=O)Oc1ccc(-c2cccc(Cn3cncn3)c2)cc1Cl` [compound 1854], in that order: less than 1000 nM and less than 1000 nM.
For `NS(=O)(=O)Oc1ccc(-c2ccc(Cn3cncn3)cc2)cc1` [compound 1976], in that order: less than 10000 nM and less than 10000 nM.
On to `NS(=O)(=O)Oc1ccc(SCc2cccc(Cn3cncn3)c2)cc1Cl` [compound 1979], for which the IC50 on Aromatase and against steroid sulphatase (STS) was less than 1000 nM throughout.
With `NS(=O)(=O)Oc1ccc(SCc2ccc(Cn3cncn3)cc2)cc1Cl` [compound 1980], the IC50 against Aromatase and at steroid sulphatase (STS) was less than 1000 nM throughout.
As for `NS(=O)(=O)Oc1ccc(C#Cc2cccc(Cn3cncn3)c2)cc1Cl` [compound 2054], the IC50 on steroid sulphatase (STS) was less than 1000 nM.
